Assay results reported in patent publication US11780851B2, “LRRK2 inhibitors” (H. Lundbeck A/S, priority 2021, dated 2023).
Where two headings read alike, the source gives them in different places.

Columns and labels:
[1] = biological target: T1, LRRK2 G2019S (Homo sapiens, UniProt Q5S007, G2019S); assay: LRRK2 G2019S kinase activity assay (LanthaScreen TR-FRET); format: biochemical; conditions: 250 pM LRRK2 G2019S, 1.3 mM ATP, 3 h at 30° C.; n≥2 tests
T1 construct: purchased Invitrogen (Life Technologies Corporation)
Method: (§1) LRRK2 kinase activity was measured using a LanthaScreen kinase activity assay available from Invitrogen (Life Technologies Corporation). The assay is a homogeneous time resolved-fluorescence resonance energy transfer (TR-FRET) assay that measures phosphorylation of a fluorescein-labelled peptide substrate Fluorescein-ERM LRRKtide obtainable from Life Technologies Corporation as a result of LRRK2 kinase activity. The phosphorylated peptide is recognized by a terbium-labelled phospho-specific anti-LRRKtide antibody (pLRRKtide antibody), obtainable from Life Technologies Corporation and, subsequently, the phosphorylated LRRKtide can be quantified by the extent of TR-FRET between the terbium donor and fluorescein acceptor. The LRRK2 kinase was obtained from Invitrogen (Life Technologies Corporation) and comprises residue 970 to 2527 of the full length human wild-type LRRK2 kinase, or a similar sequence with the G2019S mutation. As discussed above, this mutation increases the kinase activity relative to the wild type. The kinase reactions were performed in a 20 μL volume in 384-well plates. […] The mixture was further incubated for 30 minutes at RT. […] The measurement was repeated 30 times for fluorescein and 30 times for terbium emission with a 1000 μs time window between repeats. TR-FRET measurements were performed on a Biotek Synergy plate. The TR-FRET signal was calculated as the emission-ratio at 520 nm over 495 nm. The TR-FRET ratio readout for test compounds was normalized to 0% inhibition corresponding to TR-FRET ratio measured in control wells with no inhibition of the kinase activity and 100% inhibition corresponding to TR-FRET ratio measured in control wells with inhibitor. […] C is the IC50 value and D is the Hill slope coefficient. IC50 estimates were obtained from independent experiment and the logarithmic average was calculated.

[2] = biological target: T2, LRRK2 WT (Homo sapiens, UniProt Q5S007); assay: LRRK2 wild-type kinase activity assay (LanthaScreen TR-FRET); format: biochemical; conditions: 1 nM LRRK2 WT, 1.3 mM ATP, 3.5 h at 30° C.; n≥2 tests
T2 construct: comprises residue 970 to 2527 of the full length human wild-type LRRK2 kinase; purchased Invitrogen (Life Technologies Corporation)
Method: as §1

[3] = Rat B/P (brain disposition); format: in vivo, male Sprague-Dawley rats; conditions: male, Sprague-Dawley; for concentration at 0.5 h / Kp uu at 0.5 h / Kp at 0.5 h: time point 0.5 h; for concentration at 0.5 h / Kp at 0.5 h / concentration at 1 h / Kp at 1 h: mean ± stdev; for Kp uu at 0.5 h / Kp at 0.5 h / Kp at 1 h / Kp uu at 1 h: brain/plasma; for Kp uu at 0.5 h / Kp uu at 1 h: fubrain from brain homogenate; for Kp at 0.5 h / Kp at 1 h: n = 3; for concentration at 1 h / Kp at 1 h / Kp uu at 1 h: time point 1.0 h
Method: Brain disposition was evaluated for each compound in male Sprague-Dawley rats (n=3, standard body weight). […] Isolated plasma and brain homogenates were extracted by standard protein precipitation in acetonitrile, containing internal standard, followed by LC-MS/MS analysis using an optimized analytical method. Concentrations of test compound in plasma and brain were quantified against matrix matched calibration standards. The total plasma and brain concentration data are presented in Table 7 alongside the calculated brain Kp (total brain concentration:total plasma concentration ratio).

[4] = Free fraction in plasma (equilibrium dialysis); format: in vitro ADME, male Sprague-Dawley rat; conditions: rat plasma, 1 μM, 5 h at 37° C.
Method: The free fractions in male Sprague-Dawley rat or female Gottingen minipig plasma (fuplasma) and rat brain homogenate (fubrain) were determined by equilibrium dialysis using 96-well HTD-dialysis plates with dialysis membranes (molecular weight cut off 12-14 KDa). One side of the HTD-dialysis plate was loaded with matrix (plasma or brain homogenate) and the other side with buffer (100 mM sodium phosphate buffer, pH 7.4). Test compounds were dissolved in DMSO then spiked (5 μL of 0.2 mM) into blank (995 μL) plasma or diluted brain homogenate (1:4 ratio in phosphate buffer) giving a final nominal concentration 1 μM (≤0.5% DMSO). The matrices were loaded into respective chambers and equilibrated against phosphate buffer for 5 h at 37° C. (in a humidified air incubator with 5% CO2 with shaking). Samples from both chambers (buffer and plasma or brain homogenate) were aliquoted to fresh 96-well polypropylene plates then matrix matched using an equal volume of opposite blank matrix before extraction with cold solvent (3 volumes acetonitrile) containing an appropriate bioanalytical internal standard. After centrifugation (20 min, 3200 g, 4° C.) the supernatants were diluted with appropriate volumes of water and compound concentrations were quantified by LC/MS-MS against matrix matched calibration standards. The fuplasma and fubrain were calculated as a percent free according to equation 4 below.
Where [F] is the analyte concentration on the buffer (receiver) side of the membrane; [T] is the analyte concentration on the plasma or brain (donor) side of the membrane; [TO] is the analyte concentration in the plasma or brain sample at time zero; D is matrix dilution factor which is determined as 4 for brain matrix and 1 for plasma matrix in these assays.

[5] = brain, oral gavage 5 mg/kg, n = 3, read-out: Total brain concentration
[6] = plasma, oral gavage 5 mg/kg, n = 3, read-out: Total plasma concentration
[7] = brain, oral gavage 10 mg/kg, n = 3, read-out: Total brain concentration
[8] = plasma, oral gavage 10 mg/kg, n = 3, read-out: Total plasma concentration
[9] = po, 10 mg/kg, oral gavage 10 mg/kg

T2 sequence (Q5S007 970-2527): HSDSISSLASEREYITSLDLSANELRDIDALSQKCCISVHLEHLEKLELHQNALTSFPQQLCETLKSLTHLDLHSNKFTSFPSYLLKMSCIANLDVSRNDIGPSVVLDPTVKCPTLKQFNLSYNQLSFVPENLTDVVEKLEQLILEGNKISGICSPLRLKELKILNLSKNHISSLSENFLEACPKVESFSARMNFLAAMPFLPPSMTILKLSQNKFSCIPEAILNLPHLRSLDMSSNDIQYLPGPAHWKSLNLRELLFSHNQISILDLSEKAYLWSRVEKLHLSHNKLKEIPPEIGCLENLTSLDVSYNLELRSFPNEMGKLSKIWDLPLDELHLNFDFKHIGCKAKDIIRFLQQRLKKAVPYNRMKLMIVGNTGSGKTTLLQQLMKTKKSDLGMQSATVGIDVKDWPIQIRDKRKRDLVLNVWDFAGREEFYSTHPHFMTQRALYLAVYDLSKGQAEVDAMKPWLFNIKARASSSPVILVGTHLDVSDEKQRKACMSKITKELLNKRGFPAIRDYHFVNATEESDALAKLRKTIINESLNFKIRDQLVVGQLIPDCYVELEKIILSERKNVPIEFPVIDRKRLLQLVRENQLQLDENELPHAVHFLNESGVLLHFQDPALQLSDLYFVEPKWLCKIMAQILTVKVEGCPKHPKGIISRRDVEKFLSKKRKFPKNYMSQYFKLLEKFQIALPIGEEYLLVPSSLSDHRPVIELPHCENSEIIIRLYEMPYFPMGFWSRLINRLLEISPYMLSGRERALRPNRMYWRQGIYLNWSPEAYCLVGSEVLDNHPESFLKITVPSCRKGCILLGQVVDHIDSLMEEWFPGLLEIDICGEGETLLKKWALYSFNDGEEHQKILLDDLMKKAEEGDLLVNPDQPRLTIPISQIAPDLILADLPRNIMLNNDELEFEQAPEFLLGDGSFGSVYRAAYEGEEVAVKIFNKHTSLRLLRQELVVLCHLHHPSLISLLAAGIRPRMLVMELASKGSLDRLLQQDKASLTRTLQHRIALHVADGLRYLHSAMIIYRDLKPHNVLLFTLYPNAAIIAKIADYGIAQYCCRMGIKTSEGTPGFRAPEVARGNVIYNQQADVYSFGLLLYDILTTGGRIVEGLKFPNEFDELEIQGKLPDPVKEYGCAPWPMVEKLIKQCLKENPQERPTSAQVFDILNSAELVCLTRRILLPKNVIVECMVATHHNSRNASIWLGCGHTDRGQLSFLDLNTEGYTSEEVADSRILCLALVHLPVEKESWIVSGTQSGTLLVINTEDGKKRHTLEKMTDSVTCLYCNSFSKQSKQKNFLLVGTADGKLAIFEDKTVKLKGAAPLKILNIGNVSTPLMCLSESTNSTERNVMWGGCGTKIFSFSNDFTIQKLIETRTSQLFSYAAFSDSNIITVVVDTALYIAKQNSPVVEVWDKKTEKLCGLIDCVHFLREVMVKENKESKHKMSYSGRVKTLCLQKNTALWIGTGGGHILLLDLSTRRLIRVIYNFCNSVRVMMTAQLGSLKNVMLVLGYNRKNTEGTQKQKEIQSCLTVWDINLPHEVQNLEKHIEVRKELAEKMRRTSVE
T1 sequence (Q5S007 970-2527 G2019S): as the sequence (Q5S007 970-2527) above, with G1050S counted along it

SMILES	IC50 [1] [nM]	IC50 [2] [nM]	fuplasma (% free) [4] [% free]	other results
Cc1c2c(nn1[C@@H]1CC1(F)F)OCCCn1nc(Cl)c3cnc(nc31)N2 (single isomer, unassigned) [Example 40, (+)-(R) or (S)-8-Chloro-2-(2,2-difluorocyclopropyl)-3-methyl-2,4,12,13-tetrahydro-11H-5,7-(azenometheno)dipyrazolo[3,4-b:5′,1′-g][1]oxa[4,6,8]triazacycloundecine]	12	28	12.7	concentration at 0.5 h [3, 5]: 138 ± 12 ng/g; Kp uu at 0.5 h ([3]; oral gavage 5 mg/kg): 0.72 ± 0.08; Kp at 0.5 h ([3]; oral gavage 5 mg/kg): 1.93 ± 0.22; concentration at 0.5 h [3, 6]: 72 ± 8 ng/mL
Cc1c2c(nn1[C@H]1[C@@H]3COC[C@@H]31)OCCCn1nc(Cl)c3cnc(nc31)N2 [Example 38, 2-((1R,5S,6r)-3-Oxabicyclo[3.1.0]hexan-6-yl)-8-chloro-3-methyl-2,4,12,13-tetrahydro-11H-5,7-(azenometheno)dipyrazolo[3,4-b:5′,1′-g][1]oxa[4,6,8]triazacycloundecine]	11	28	30.0	concentration at 0.5 h [3, 7]: 562 ± 83 ng/g; Kp uu at 0.5 h ([3]; oral gavage 10 mg/kg): 0.48 ± 0.03; Kp at 0.5 h ([3]; oral gavage 10 mg/kg): 1.58 ± 0.1; concentration at 0.5 h [3, 8]: 355 ± 31 ng/mL
Cc1c2c(nn1C1(C)COC1)OCCCn1nc(Cl)c3cnc(nc31)N2 [Example 14, 8-Chloro-3-methyl-2-(3-methyloxetan-3-yl)-2,4,12,13-tetrahydro-11H-5,7-(azenometheno)dipyrazolo[3,4-b:5′,1′-g][1]oxa[4,6,8]triazacycloundecine]	4	16	38.0	concentration at 1 h [3, 7]: 421 ± 168 ng/g; Kp at 1 h ([3]; oral gavage 10 mg/kg): 1.52 ± 0.37; Kp uu at 1 h [3, 9]: 0.3 ± 0.07; concentration at 1 h [3, 8]: 280 ± 102 ng/mL
Cc1c2c(nn1C13CC(C#N)(C1)C3)OCCCn1nc(Cl)c3cnc(nc31)N2 [Example 33, 3-(8-Chloro-3-methyl-12,13-dihydro-11H-5,7-(azenometheno)dipyrazolo[3,4-b:5′,1′-g][1]oxa[4,6,8]triazacycloundecin-2(4H)-yl)bicyclo[1.1.1]pentane-1-carbonitrile]	5.9	18	11.0	concentration at 1 h [3, 5]: 37 ± 1 ng/g; Kp uu at 1 h ([3]; oral gavage 5 mg/kg): 0.4 ± 0.07; Kp at 1 h ([3]; oral gavage 5 mg/kg): 0.87 ± 0.15; concentration at 1 h [3, 6]: 43 ± 9 ng/mL
Cc1c2c(nn1C1CCOCC1)OCCCn1nc(Br)c3cnc(nc31)N2 [Example 6, 8-Bromo-3-methyl-2-(tetrahydro-2H-pyran-4-yl)-2,4,12,13-tetrahydro-11H-5,7-(azenometheno)dipyrazolo[3,4-b:5′,1′-g][1]oxa[4,6,8]triazacycloundecine]			34.3	concentration at 1 h [3, 7]: 1460 ± 244 ng/g; Kp at 1 h ([3]; oral gavage 10 mg/kg): 1.97 ± 0.27; Kp uu at 1 h [3, 9]: 0.44 ± 0.06; concentration at 1 h [3, 8]: 738 ± 24 ng/mL
Cc1c2c(nn1[C@@H]1CCOC[C@@H]1C)OCCCn1nc(Cl)c3cnc(nc31)N2 (single isomer, unassigned) [Example 21, 8-Chloro-3-methyl-2-((3R,4S) or (3S,4R) or (3S,4S) or (3R,4R)-3-methyltetrahydro-2H-pyran-4-yl)-2,4,12,13-tetrahydro-11H-5,7-(azenometheno)dipyrazolo[3,4-b:5′,1′-g][1]oxa[4,6,8]triazacycloundecine]	3.7	10		
CCc1c2c(nn1[C@@H]1CCOC[C@H]1F)OCCCn1nc(Cl)c3cnc(nc31)N2 (single isomer, unassigned) [Example 55, (+)-8-Chloro-3-ethyl-2-((3R,4S) or (3S,4R)-3-fluorotetrahydro-2H-pyran-4-yl)-2,4,12,13-tetrahydro-11H-5,7-(azenometheno)dipyrazolo[3,4-b:5′,1′-g][1]oxa[4,6,8]triazacycloundecine]	1.5	5.6		
Cc1c2c(nn1CC13CC(CO1)C3)OCCCn1nc(Cl)c3cnc(nc31)N2 [Example 11, 2-((2-Oxabicyclo[2.1.1]hexan-1-yl)methyl)-8-chloro-3-methyl-2,4,12,13-tetrahydro-11H-5,7-(azenometheno)dipyrazolo[3,4-b:5′,1′-g][1]oxa[4,6,8]triazacycloundecine]	4.6	14		
Cc1c2c(nn1C1CCOCC1)OCCCn1nc(C#N)c3cnc(nc31)N2 [Example 9, 3-Methyl-2-(tetrahydro-2H-pyran-4-yl)-2,4,12,13-tetrahydro-11H-5,7-(azenometheno)dipyrazolo[3,4-b:5′,1′-g][1]oxa[4,6,8]triazacycloundecine-8-carbonitrile]	57	110		
[2H]C([2H])([2H])c1c2c(nn1C1CCOCC1)OC([2H])([2H])C([2H])([2H])C([2H])([2H])n1nc(Cl)c3cnc(nc31)N2 [Example 35, 8-Chloro-3-(methyl-d3)-2-(tetrahydro-2H-pyran-4-yl)-2,4,12,13-tetrahydro-11H-5,7-(azenometheno)dipyrazolo[3,4-b:5′,1′-g][1]oxa[4,6,8]triazacycloundecine-11,11,12,12,13,13-d6]	5.3	15		
Cc1c2c(nn1C)OCCCn1nc(Cl)c3cnc(nc31)N2 [Example 1, 8-Chloro-2,3-dimethyl-2,4,12,13-tetrahydro-11H-5,7-(azenometheno)dipyrazolo[3,4-b:5′,1′-g][1]oxa[4,6,8]triazacycloundecine]	18	55		
Cc1nn2c3nc(ncc13)Nc1c(nn(C3CCOCC3)c1C)OCCC2 [Example 8, 3,8-Dimethyl-2-(tetrahydro-2H-pyran-4-yl)-2,4,12,13-tetrahydro-11H-5,7-(azenometheno)dipyrazolo[3,4-b:5′,1′-g][1]oxa[4,6,8]triazacycloundecine]	21	93		
